The source of these data is US8450354B2, “Substituted imidazo[1,2-b]pyridazine derivatives, pharmaceutical compositions, and methods of use as β-secretase inhibitors” (High Point Pharmaceuticals, LLC, priority 2010, dated 2013).

A short description of assay [1]: Aβ Cell Based Assay (Aβ1-40 secretion, ELISA). The note with it: Homo sapiens, HEK293; HEK-APPwt cells, 6 hours incubation, reduction of Aβ1-40 secretion; asterisk = mean. On the set-up: species or system human. The protocol:
Aβ Cell Based Assay Procedure
In the following assay, the proteolytic activity of BACE in cells exposed to varying concentrations of a compound of interest is measured by observing the amount of Aβ1-40 secreted from HEK293 cells (Human Embryonic Kidney epithelial cell line) stably expressing wildtype human APP695 protein (HEK-APPwt cells).
HEK-APPwt cells were grown in high glucose DMEM (Dulbecco's Modified Eagles Medium SIGMA Cat. #D5796) supplemented with 25 mM HEPES (4-(2-hydroxyethyl)-1-piperazineethanesulfonic acid) (pH 7.4) (Invitrogen Cat. #15630-114), 0.1 mM NEAA (Non-essential Amino Acids) (BioWhittaker Cat. #13-114E), 10% fetal bovine serum (SIGMA Cat. #F4135) and 250 μg/mL hygromycin (Invitrogen Cat. #10687-010) in T-225 flasks at 37° C. with 5% CO2 and humidity control.
Test compounds were initially prepared in DMSO and diluted with DMEM media containing 2% FBS (Fetal bovine serum). Ten standard compound solutions were prepared having a range of concentrations. The standard compound solutions were used to determine the EC50 of the test compound. The range of concentrations chosen may depend on the compound's predicted potency.
To prepare cells for the assay, a flask containing HEK-APPwt cells were trypsinized briefly (1 mL trypsin), and once the cells detached, 4 mL of 10% FBS-DMEM was added to the flask. The detached cells were centrifuged at 900 rpm for 5 min to form a pellet.
The HEK-APPwt cell pellet was re-suspended with 10 mL DMEM media containing 2% FBS. 80 μL of the cell suspension was added to each well of a 96-well cell culture plate to give 100×10^4 cells/ml. 10 μL of a standard compound solution was added to each well of the 96-well cell culture plate followed by 10 μL of Alamar blue solution. The cells were incubated at 37° C. in a 5% CO2 incubator for 6 hours.
At the end of the incubation, the plates were removed from incubator, and the supernatant was collected. Aβ1-40 concentration in the medium was measured by using a commercial Aβ1-X ELISA kit (IBL, Japan Cat. #27729). Briefly, the ELISA plates were coated with an anti-human Aβ (N)(82E1) mouse IgG monoclonal antibody. A horseradish peroxidase conjugated anti-human Aβ11-28 mouse IgG monoclonal antibody was used for detection. The cell culture supernatant was diluted with EIA buffer+protease inhibitors (kit buffer containing protease inhibitors (1 mL PI/30 mL buffer)). A 100 μL aliquot of the diluted supernatant was added to each well of the ELISA plate and incubated for 6 hrs at 4° C. The ELISA plate was washed 8 times with phosphate buffered saline (PBS) containing 0.05% TWEEN 20.
A 100 μL of detection antibody was then added and incubated for 1 hour at 4° C. The plate was washed 8 times with PBS buffer containing 0.05% Tween 20 followed by addition of 100 μL of the chromogen tetramethylbenzidine (TMB). The plate was incubated in the dark at room temperature for about 30 min and a stop solution (1N H2SO4) was added.
The intensity of the color developed was measured at 450 nm. The optical density at 450 nm (OD450) is proportional to the concentration of human Aβ1-40 secreted by the cell. As a reference, N—[N-(3,5-difluorophenacetyl-L-alanyl)]—S-phenylglycine t-butyl ester (DAPT, a γ-secretase inhibitor) was used to indicate 100% inhibition of […]. Thus, the assay measures the ability of a compound of interest to reduce Aβ1-40 secretion. Compound potency is reported in Table 3 as the EC50 by calculating the percent inhibition at all concentration levels and the data were fit with non-linear curve fitting algorithm using GraphPad Prism.

Assay [2] addresses T1, BACE-1 enzyme (Homo sapiens, UniProt P56817).
T1 construct: purchased R & D Systems 931AS
The assay can be described thus: BACE Fluorescence Resonance Energy Transfer (FRET) Assay. The assay is classed as biochemical. The note with it: pH 4-4.5, 30 min pre-incubation, about 1.5 hours reaction, asterisk = mean. The protocol:
BACE Fluorescence Resonance Energy Transfer (FRET) Assay
In the following assay, the proteolytic activity of BACE is measured by observing cleavage of a fluorescent group from a peptide substrate containing a rhodamine fluorescent donor and a quenching acceptor.
The inhibitory activity of compounds of Formula (I) may be compared to a statine derived control inhibitor STA200 (MP Biomedical Cat. #STA-200). The cleavage reaction occurs when a BACE-1 substrate (Invitrogen, Cat. #P2986) was added to a reaction mixture containing BACE-1 enzyme (R & D Systems, Cat. #931AS) and allowed to proceed for about 1.5 hours. Fluorescence, used as a marker of BACE activity, is monitored using 540 nm excitation and 585 nm emission wavelengths (Envision, Perkin Elmer).
A typical assay reaction contains BACE-1 enzyme-in assay buffer (50 mM sodium acetate, pH 4-4.5, 0.01% CHAPS (3-[(3-Cholamidopropyl)dimethylammonio]-1-propanesulfonate), 0.0125% TritonX-100, 0.006% EDTA) which is pre-incubated for 30 minutes with test compound in 7.5% DMSO. The reaction is initiated with the addition of BACE-1 substrate in assay buffer and allowed to proceed for about 1.5 hours at room temperature. Assays are conducted in black 384-well microtiter plates and scanned at room temperature using 540 nm excitation and 585 nm emission wavelengths.
In some instances, the percent inhibition at a given concentration is reported instead of the IC50.

T1 sequence (P56817 46-457 limits assumed): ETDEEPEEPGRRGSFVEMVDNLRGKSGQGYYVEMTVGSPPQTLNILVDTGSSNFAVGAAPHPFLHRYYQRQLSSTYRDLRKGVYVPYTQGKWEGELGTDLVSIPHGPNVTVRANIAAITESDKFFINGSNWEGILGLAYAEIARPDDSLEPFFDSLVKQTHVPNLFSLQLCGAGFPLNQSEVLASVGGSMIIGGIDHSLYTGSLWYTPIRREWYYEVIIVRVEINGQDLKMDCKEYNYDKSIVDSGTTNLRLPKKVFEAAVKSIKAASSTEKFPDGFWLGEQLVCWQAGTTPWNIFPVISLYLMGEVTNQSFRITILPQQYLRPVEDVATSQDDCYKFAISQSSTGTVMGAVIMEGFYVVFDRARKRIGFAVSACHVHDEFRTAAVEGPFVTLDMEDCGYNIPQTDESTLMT

As a reminder, the EC50 is the concentration at which the effect is half-maximal. What is called IC50 is the point on the concentration scale where inhibition reaches its midpoint. A high value points to lower potency. In assay [1], `O=C(Nc1nc2cc(-c3cc(F)cc(Cl)c3)ccc2[nH]1)c1cn2nc(OCC3(CO)CCC3)ccc2n1` [Example 132] had an EC50 of 0.47 µM. The same molecule had an IC50 in assay [2] of 0.344 µM.

Consider `CC1(C)CCC(c2ccc3[nH]c(NC(=O)c4cn5nc(N6CC[C@@H](O)C6)ccc5n4)nc3c2)CC1` [Example 85], for which the EC50 in assay [1] is 2.27 µM. In assay [2], this molecule gave an IC50 of 0.089 µM.

In turn, `O=C(Nc1nc2cc(-c3cccc(OC(F)(F)F)c3)ccc2[nH]1)c1cn2nc(OC[C@H]3CC[C@@H](CO)O3)ccc2n1` [Example 134] came in with an EC50 in assay [1] of 0.75 µM. In assay [2], this molecule returned an IC50 of 0.203 µM.

In assay [1], `O=C(Nc1nc2cc(-c3cccc(C(F)(F)F)c3)ccc2[nH]1)c1cn2nc(OCCN3CCNC3=O)ccc2n1` [Example 26] registered an EC50 of 1.41 µM. This molecule also showed an IC50 in assay [2] of 0.222 µM.

`C[C@H](O)[C@@H](C)Oc1ccc2nc(C(=O)Nc3nc4cc(-c5cccc(C(F)(F)F)c5)ccc4[nH]3)cn2n1` [Example 99] yielded an EC50 in assay [1] of 0.78 µM. Besides, in assay [2], the IC50 was 0.189 µM.

In turn, `O=C(Nc1nc2cc(-c3ccc(F)c(Cl)c3)ccc2[nH]1)c1cn2nc(OCCO)ccc2n1` [Example 131, 6-(2-Hydroxy-ethoxy)-imidazo[1,2-b]pyridazine-2-carboxylic acid [5-(3-chloro-4-fluoro-phenyl)-1H-benzoimidazol-2-yl]-amide] registered an EC50 in assay [1] of 0.15 µM. In addition, in assay [2], 0.245 µM corresponded to half-maximal inhibition (IC50).

As to `CC[C@@H](O)COc1ccc2nc(C(=O)Nc3nc4cc(-c5cc(F)cc(Cl)c5)ccc4[nH]3)cn2n1` [Example 105], the concentration for a half-maximal effect (EC50) in assay [1] turned out to be 1.27 µM. Besides, the IC50 in assay [2] turned out to be 0.064 µM.

For `O=C(Nc1nc2cc(-c3cc(F)cc(Cl)c3)ccc2[nH]1)c1cn2nc(OCCCO)ccc2n1` [Example 113], the half-maximal effective concentration (EC50) in assay [1] is 1.71 µM. Also, the IC50 in assay [2] was determined as 0.528 µM.

`C[C@H](O)COc1ccc2nc(C(=O)Nc3nc4cc(-c5ccc(C(F)(F)F)c(Cl)c5)ccc4[nH]3)cn2n1` [Example 123, 6-((S)-2-Hydroxy-propoxy)-imidazo[1,2-b]pyridazine-2-carboxylic acid [5-(3-chloro-4-trifluoromethyl-phenyl)-1H-benzoimidazol-2-yl]-amide]: a half-maximal response in assay [1] (EC50) required 0.12 µM. The molecule further displayed an IC50 in assay [2] of 0.372 µM.

`CN1CC[C@H](Oc2ccc3nc(C(=O)Nc4nc5cc(-c6cc(F)cc(Cl)c6)ccc5[nH]4)cn3n2)C1` [Example 69]: the EC50 in assay [1] turned out to be 2.93 µM. The molecule further yielded an IC50 in assay [2] of 0.3 µM.

The molecule `O=C(Nc1nc2cc(-c3cccc(OC(F)(F)F)c3)ccc2[nH]1)c1cn2nc(OCCN3CCOCC3)ccc2n1` [Example 32] had a 50% effective concentration (EC50) in assay [1] of 0.59 µM. Also, the IC50 in assay [2] was found to be 0.234 µM.

In assay [1], `CN(C)C(=O)COc1ccc2nc(C(=O)Nc3nc4cc(-c5cccc(C(F)(F)F)c5)ccc4[nH]3)cn2n1` [Example 141] displayed an EC50 of 1.3 µM. The molecule also had an IC50 in assay [2] of 0.172 µM.

In assay [1], `COC[C@H](COc1ccc2nc(C(=O)Nc3nc4cc(-c5cccc(C(F)(F)F)c5)ccc4[nH]3)cn2n1)OC` [Example 135] gave an EC50 of 0.45 µM. Besides, the IC50 in assay [2] was determined as 0.117 µM.

Take `CN1CCN(CCOc2ccc3nc(C(=O)Nc4nc5cc(-c6cccc(OC(F)(F)F)c6)ccc5[nH]4)cn3n2)CC1` [Example 35]: the midpoint of the response in assay [1], the EC50, lay at 3.13 µM. The same molecule returned an IC50 in assay [2] of 0.315 µM.

Take `CCC[C@@H](O)COc1ccc2nc(C(=O)Nc3nc4cc(-c5cc(F)cc(Cl)c5)ccc4[nH]3)cn2n1` [Example 124]: the EC50 in assay [1] came to 0.3 µM. The molecule further yielded an IC50 in assay [2] of 0.419 µM.

For the molecule `C[C@@H](O)COc1ccc2nc(C(=O)Nc3nc4cc(-c5ccc(C(F)(F)F)c(Cl)c5)ccc4[nH]3)cn2n1` [Example 122, 6-((R)-2-hydroxy-propoxy)-imidazol[1,2-b]pyridazine-2-carboxylic acid [5-(3-chloro-4-trifluoromethyl-phenyl)-1H-benzoimidazol-2-yl]-amide], in assay [1], a half-maximal effect (EC50) was put at 0.1 µM. Besides, the midpoint of inhibition in assay [2], the IC50, lay at 0.371 µM.

Consider `COc1ccc2nc(C(=O)Nc3nc4cc(-c5cc(F)cc(Cl)c5)ccc4[nH]3)cn2n1` [Example 7], for which the EC50 in assay [1] is 0.7 µM. Further, 0.225 µM corresponded to half-maximal inhibition in assay [2] (IC50).

`O=C(Nc1nc2cc(-c3cccc(C(F)(F)F)c3)ccc2[nH]1)c1cn2nc(OCCN3CCCCCC3)ccc2n1` [Example 40] registered an EC50 in assay [1] of 2.68 µM. This molecule showed an IC50 in assay [2] of 0.307 µM.

`CC(C)(O)CCOc1ccc2nc(C(=O)Nc3nc4cc(-c5cc(F)cc(Cl)c5)ccc4[nH]3)cn2n1` [Example 114]: a half-maximal effect in assay [1] (EC50) was put at 0.33 µM. In assay [2], this molecule yielded an IC50 of 0.279 µM.

In turn, `CC1(C)CCC(c2ccc3[nH]c(NC(=O)c4cn5nc(N6CCCC(O)C6)ccc5n4)nc3c2)CC1` (stereo not shown) [Example 84] displayed an EC50 in assay [1] of 1.71 µM. For the same molecule, the concentration for half-maximal inhibition (IC50) in assay [2] was 0.191 µM.

In turn, `CC(C)[C@H](O)COc1ccc2nc(C(=O)Nc3nc4cc(-c5cc(F)cc(Cl)c5)ccc4[nH]3)cn2n1` [Example 108] had an EC50 in assay [1] of 0.89 µM. Besides, in assay [2], the IC50 was determined as 0.357 µM.

In assay [1], `O=C(Nc1nc2cc(-c3cc(F)cc(Cl)c3)ccc2[nH]1)c1cn2nc(N3CCC(O)CC3)ccc2n1` [Example 142, 6-(4-Hydroxy-piperidin-1-yl)-imidazo[1,2-b]pyridazine-2-carboxylic acid [5-(3-chloro-5-fluoro-phenyl)-1H-benzoimidazol-2-yl]-amide] yielded an EC50 of 0.63 µM. This molecule gave an IC50 in assay [2] of 0.134 µM.

As to `O=C(Nc1nc2cc(-c3cccc(C(F)(F)F)c3)ccc2[nH]1)c1cn2nc(OCCn3cncn3)ccc2n1` [Example 45], in assay [1], the EC50 was found to be 1.31 µM. Also, in assay [2], half-maximal inhibition (IC50) required 0.198 µM.

Consider `CC[C@H](O)COc1ccc2nc(C(=O)Nc3nc4cc(-c5cc(F)cc(Cl)c5)ccc4[nH]3)cn2n1` [Example 106], for which the EC50 in assay [1] worked out at 0.86 µM. In assay [2], this molecule had an IC50 of 0.139 µM.

As for `CC1(C)CCC(c2ccc3[nH]c(NC(=O)c4cn5nc(N6CC[C@H](O)C6)ccc5n4)nc3c2)CC1` [Example 86], the EC50 in assay [1] turned out to be 2.46 µM. This molecule also displayed an IC50 in assay [2] of 0.123 µM.

`O=C(Nc1nc2cc(-c3cc(F)cc(Cl)c3)ccc2[nH]1)c1cn2nc(OCCN3CCOCC3)ccc2n1` [Example 50] displayed an EC50 in assay [1] of 0.58 µM. For the same molecule, in assay [2], half-maximal inhibition (IC50) was put at 0.267 µM.

In the case of `C[C@@H](O)[C@@H](C)Oc1ccc2nc(C(=O)Nc3nc4cc(-c5cccc(C(F)(F)F)c5)ccc4[nH]3)cn2n1` [Example 100], it took 0.7 µM to reach a half-maximal effect in assay [1] (EC50). This molecule returned an IC50 in assay [2] of 0.26 µM.

In assay [1], `O=C(Nc1nc2cc(-c3cccc(OC(F)(F)F)c3)ccc2[nH]1)c1cn2nc(OCCN3CCCCC3)ccc2n1` [Example 47] showed an EC50 of 1.96 µM. This molecule yielded an IC50 in assay [2] of 0.24 µM.

`CC(C)(O)COc1ccc2nc(C(=O)Nc3nc4cc(-c5cccc(OC(F)(F)F)c5)ccc4[nH]3)cn2n1` [Example 112] returned an EC50 in assay [1] of 0.48 µM. In assay [2], the IC50 stood at 0.251 µM.
